BindingDB's records for doi:10.1074/jbc.M110.120576 (Pharmaleads, 2010)

Target: EEF1AKMT4-ECE2 readthrough transcript protein (Homo sapiens, UniProt P0DPD8)
Assay: Enzymatic Assay
Text: Inhibitory assay against ECE-2.

Chain of EEF1AKMT4-ECE2 readthrough transcript protein (P0DPD8 whole entry): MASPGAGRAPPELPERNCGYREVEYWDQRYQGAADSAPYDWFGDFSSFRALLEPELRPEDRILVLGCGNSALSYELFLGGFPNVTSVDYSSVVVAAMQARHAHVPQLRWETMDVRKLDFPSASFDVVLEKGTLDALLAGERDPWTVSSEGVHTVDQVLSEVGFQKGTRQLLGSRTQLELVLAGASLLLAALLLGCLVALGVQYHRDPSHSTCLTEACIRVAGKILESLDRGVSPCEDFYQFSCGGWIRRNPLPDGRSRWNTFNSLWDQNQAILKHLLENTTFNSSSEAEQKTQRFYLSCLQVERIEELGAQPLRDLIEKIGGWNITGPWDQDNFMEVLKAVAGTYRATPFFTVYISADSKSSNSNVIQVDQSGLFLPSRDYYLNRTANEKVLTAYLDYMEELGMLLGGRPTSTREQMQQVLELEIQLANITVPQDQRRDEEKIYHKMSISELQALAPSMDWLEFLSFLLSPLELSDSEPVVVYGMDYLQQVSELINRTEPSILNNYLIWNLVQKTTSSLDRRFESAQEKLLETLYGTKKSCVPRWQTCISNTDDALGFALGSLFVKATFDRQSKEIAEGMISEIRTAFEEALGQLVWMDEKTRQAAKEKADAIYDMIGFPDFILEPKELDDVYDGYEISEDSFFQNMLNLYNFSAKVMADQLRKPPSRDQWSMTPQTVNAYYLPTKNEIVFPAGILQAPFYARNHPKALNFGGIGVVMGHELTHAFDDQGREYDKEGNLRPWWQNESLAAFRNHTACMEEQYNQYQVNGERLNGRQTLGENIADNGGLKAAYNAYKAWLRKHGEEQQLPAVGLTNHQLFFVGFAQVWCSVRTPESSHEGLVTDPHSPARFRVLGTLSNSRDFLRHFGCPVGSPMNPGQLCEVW

SMILES	IC50	Ki
O=C(O)CNC(=O)[C@@H](CS)Cc1ccccc1 [2-(2-benzyl-3-sulfanylpropanamido)acetic acid]	> 100000 nM	> 100000 nM
C[C@H](CS)C(=O)N1CCC[C@H]1C(=O)O [(2S)-1-[(2S)-2-methyl-3-sulfanylpropanoyl]pyrrolidine-2-carboxylic acid]	> 100000 nM	> 100000 nM
O=C(N[C@@H](Cc1c[nH]c2ccccc12)C(=O)O)C(CS)C1CCc2cc(Br)ccc21 (stereo partly drawn) [(2S)-2-[2-(5-bromo-2,3-dihydro-1H-inden-1-yl)-3-sulfanylpropanamido]-3-(1H-indol-3-yl)propanoic acid, 1]	43.4 nM	22.3 nM
O=C(O)[C@H](Cc1c[nH]c2ccccc12)NC(=O)[C@H](CS)C1CCc2ccccc21 (stereo partly drawn) [(2S)-2-[(2R)-2-(2,3-dihydro-1H-inden-1-yl)-3-sulfanylpropanamido]-3-(1H-indol-3-yl)propanoic acid, 2]	15.1 nM	7.7 nM
CC(C)C[C@H](NP(=O)(O)O[C@@H]1O[C@@H](C)[C@H](O)[C@@H](O)[C@H]1O)C(=O)N[C@@H](Cc1c[nH]c2ccccc12)C(=O)O [(S)-2-{(R)-2-[Hydroxy-((2R,3R,4R,5R,6S)-3,4,5-trihydroxy-6-methyl-tetrahydro-pyran-2-yloxy)-phosphorylamino]-4-methyl-pentanoylamino}-3-(1H-indol-3-yl)-propionic acid]	2.33 nM	1.2 nM
C[C@H](NC(=O)[C@@H](CC(=O)NO)Cc1ccccc1)C(=O)O [Kelatorphan]	380 nM	195 nM
O=C(O)CC(=O)N[C@@H](CS)Cc1ccccc1 [Retrothiorphan]	> 10000 nM	> 10000 nM
